Measurements from patent publication US20110098296A1, “Thiazole And Oxazole Kinase Inhibitors” (priority 2007, published 2011).

Tests used:
Colo205 tumor cells [1] = test: Method C: Cell Growth Inhibition Assay (CellTiter-Glo), Colo205; type: cell-based; settings: Homo sapiens, COLO 205, 72 h, 3 days, 4-parameter fit
Outline: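 Growth inhibition is expressed as the concentration giving 50% inhibition relative to vehicle controls, derived from a 4-parameter fit. Tumor cells plated at 500 per well were exposed for 3 days to compound (0.2% DMSO) before total ATP was quantified by CellTiter-Glo.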

ErbB2 = target: T1, ErbB2 (Homo sapiens, UniProt P04626); test: ErbB-2 substrate phosphorylation assay (HTRF); type: biochemical; settings: Method (A): Enzyme Mix incubated with compound at 20° C. for 1 hr, reaction started by adding Substrate Mix
T1 construct: made in house; host or cells: baculovirus expression system
T1 sequence (P04626 23-1255): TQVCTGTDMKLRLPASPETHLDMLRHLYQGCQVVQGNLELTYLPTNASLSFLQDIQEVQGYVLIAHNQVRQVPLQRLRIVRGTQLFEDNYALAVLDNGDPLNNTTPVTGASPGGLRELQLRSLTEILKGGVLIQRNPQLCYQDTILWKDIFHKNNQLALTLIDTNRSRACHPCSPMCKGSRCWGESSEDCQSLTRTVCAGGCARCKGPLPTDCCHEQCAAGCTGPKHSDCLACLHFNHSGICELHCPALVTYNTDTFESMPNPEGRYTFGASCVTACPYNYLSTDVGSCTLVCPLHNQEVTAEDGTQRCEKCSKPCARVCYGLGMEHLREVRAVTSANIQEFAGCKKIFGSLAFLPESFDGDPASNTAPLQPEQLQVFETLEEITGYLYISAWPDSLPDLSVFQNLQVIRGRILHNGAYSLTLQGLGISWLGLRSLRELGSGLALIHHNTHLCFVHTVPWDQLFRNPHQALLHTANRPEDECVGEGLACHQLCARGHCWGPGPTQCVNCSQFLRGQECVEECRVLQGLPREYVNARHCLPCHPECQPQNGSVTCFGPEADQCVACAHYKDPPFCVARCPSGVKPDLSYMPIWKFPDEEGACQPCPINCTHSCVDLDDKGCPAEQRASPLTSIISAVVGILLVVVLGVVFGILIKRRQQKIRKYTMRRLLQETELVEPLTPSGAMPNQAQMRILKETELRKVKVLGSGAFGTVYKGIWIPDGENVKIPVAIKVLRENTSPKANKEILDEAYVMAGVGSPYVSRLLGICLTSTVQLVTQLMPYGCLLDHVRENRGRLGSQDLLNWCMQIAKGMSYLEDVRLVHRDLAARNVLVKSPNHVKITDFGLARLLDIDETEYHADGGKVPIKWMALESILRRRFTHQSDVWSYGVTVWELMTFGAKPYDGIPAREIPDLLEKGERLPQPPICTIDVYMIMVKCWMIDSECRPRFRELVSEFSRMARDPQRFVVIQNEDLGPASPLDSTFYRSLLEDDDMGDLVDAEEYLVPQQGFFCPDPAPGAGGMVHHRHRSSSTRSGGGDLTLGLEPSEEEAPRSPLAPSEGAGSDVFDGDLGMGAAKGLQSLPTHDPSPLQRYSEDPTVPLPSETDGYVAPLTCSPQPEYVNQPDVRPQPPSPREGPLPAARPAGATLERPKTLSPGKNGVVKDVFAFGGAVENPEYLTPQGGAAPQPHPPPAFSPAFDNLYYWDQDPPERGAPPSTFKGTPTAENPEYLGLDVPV
Outline: (§1)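 Baculovirus-expressed kinase (0.8 nM EGFR or 10 nM ErbB2 in enzyme mix) with Peptide C 0.8 μM and ATP 20 μM (substrate-mix levels), MOPS pH 7.5, MnCl2; 90 min, 20 °C, HTRF anti-phosphotyrosine. Method A adds 1 h enzyme–compound preincubation; B none. pIC50, final compound 0.00027–47.6 μM.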

EGFR = target: T2, EGFR (Homo sapiens, UniProt P00533); test: EGFR substrate phosphorylation assay (HTRF); type: biochemical; settings: Method (A): Enzyme Mix incubated with compound at 20° C. for 1 hr, reaction started by adding Substrate Mix
T2 construct: made in house; host or cells: baculovirus expression system
T2 sequence (P00533 25-1210): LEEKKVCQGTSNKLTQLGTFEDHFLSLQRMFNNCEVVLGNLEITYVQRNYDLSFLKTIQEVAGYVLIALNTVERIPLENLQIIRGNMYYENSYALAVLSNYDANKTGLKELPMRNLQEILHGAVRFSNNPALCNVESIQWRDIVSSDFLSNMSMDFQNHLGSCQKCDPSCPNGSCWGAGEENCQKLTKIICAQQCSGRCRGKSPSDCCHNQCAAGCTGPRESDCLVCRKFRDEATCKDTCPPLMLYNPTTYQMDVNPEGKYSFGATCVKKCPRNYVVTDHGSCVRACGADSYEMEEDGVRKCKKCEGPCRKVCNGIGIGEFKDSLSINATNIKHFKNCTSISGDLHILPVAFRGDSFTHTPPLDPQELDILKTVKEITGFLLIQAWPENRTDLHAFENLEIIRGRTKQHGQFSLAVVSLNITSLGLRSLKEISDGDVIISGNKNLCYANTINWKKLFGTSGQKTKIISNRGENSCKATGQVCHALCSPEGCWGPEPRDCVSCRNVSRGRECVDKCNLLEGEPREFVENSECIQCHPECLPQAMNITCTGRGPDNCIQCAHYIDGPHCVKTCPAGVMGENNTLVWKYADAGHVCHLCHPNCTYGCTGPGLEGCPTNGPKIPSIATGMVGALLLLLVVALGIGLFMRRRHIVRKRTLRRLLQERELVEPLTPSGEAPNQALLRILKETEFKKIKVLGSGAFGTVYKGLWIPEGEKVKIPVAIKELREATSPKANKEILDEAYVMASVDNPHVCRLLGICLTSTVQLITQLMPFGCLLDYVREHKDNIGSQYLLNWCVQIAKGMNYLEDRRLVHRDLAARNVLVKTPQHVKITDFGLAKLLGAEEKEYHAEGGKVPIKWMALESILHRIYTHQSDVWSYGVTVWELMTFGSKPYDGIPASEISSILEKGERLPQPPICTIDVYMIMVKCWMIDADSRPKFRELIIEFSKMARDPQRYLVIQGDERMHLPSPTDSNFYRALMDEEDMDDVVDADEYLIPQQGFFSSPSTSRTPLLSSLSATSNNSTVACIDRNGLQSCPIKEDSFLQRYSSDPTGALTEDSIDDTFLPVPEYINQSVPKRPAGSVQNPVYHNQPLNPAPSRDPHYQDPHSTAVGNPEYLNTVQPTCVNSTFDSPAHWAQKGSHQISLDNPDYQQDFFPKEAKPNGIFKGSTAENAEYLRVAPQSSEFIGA
Outline: as §1

SK-MEL-28 tumor cells = test: Method C: Cell Growth Inhibition Assay (CellTiter-Glo), SK-MEL-28; type: cell-based; settings: Homo sapiens, SK-MEL-28, 72 h, 3 days, 4-parameter fit
Outline: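 Cells were seeded at 500 per well and dosed the next day with nine serial 1:3 compound dilutions (0.2% DMSO final), then grown 3 days at 37° C, 5% CO2. ATP was measured by CellTiter-Glo luminescence, and IC50 was interpolated by 4-parameter fit of percent inhibition versus DMSO controls.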

B-Raf = B-Raf (Homo sapiens, UniProt P15056); test: B-Raf Accelerated MEK ATPase assay (BRAMA); type: biochemical; settings: Method (A): BRAMA, kinetic read
Sequence of B-Raf (P15056 whole entry): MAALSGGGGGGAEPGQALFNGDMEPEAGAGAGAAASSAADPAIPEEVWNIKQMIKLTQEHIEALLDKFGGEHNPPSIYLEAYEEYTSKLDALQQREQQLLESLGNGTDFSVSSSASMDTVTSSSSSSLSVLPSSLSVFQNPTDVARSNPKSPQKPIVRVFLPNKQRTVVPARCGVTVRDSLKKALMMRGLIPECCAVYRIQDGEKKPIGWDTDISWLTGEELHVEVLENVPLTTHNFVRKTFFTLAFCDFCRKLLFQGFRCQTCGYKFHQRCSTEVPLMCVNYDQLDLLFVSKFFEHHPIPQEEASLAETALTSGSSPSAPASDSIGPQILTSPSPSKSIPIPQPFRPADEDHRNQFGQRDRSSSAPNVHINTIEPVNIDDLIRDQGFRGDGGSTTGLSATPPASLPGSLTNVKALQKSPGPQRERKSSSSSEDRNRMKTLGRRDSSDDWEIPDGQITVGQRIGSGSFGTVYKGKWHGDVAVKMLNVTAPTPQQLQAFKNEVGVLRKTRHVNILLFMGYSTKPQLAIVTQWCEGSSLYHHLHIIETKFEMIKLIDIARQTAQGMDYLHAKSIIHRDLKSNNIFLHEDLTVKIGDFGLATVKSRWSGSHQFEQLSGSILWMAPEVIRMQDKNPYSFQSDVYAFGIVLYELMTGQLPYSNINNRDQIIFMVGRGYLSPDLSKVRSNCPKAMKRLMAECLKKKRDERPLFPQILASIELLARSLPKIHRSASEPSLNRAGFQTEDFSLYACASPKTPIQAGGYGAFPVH
Method: Compounds of the present invention were tested for B-Raf protein serine kinase inhibitory activity in a B-Raf Accelerated MEK ATPase assay (BRAMA). The BRAMA assay is a high sensitivity assay which measures an intrinsic MEK-mediated ATP hydrolysis uncoupled from downstream ERK phosphorylation by coupling the formation of ADP to NADH oxidation through the enzymes pyruvate kinase and lactate dehydrogenase. When ADP production is initiated by addition of catalytic amounts of an activated Raf enzyme and non-phosphorylated MEK, one observes robust ADP production concomitant with Raf-mediated phosphorylation of MEK.
Method A: Specific details of the assay are disclosed in: C. Rominger, M. Schaber, E. May. Assay for B-Raf Activity Based on Intrinsic MEK ATPase Activity. Statutory Invention Registration Ser. No. 11/084,993 (March, 2005). Method B: The method is the same as method A, but includes the following changes: 1) the assay was performed with a final MEK concentration of 150 nM and 2) the assay was read as single end point instead of a kinetic read.

Colo205 tumor cells [2] = test: Method B: CellTiter-Glo Growth Inhibition Assay, Colo205; type: cell-based; settings: Homo sapiens, COLO 205, 72 h, 3 days
Method: (§2) Human breast tumor cells (BT474) were cultured in RPMI, (Invitrogen, 22400) containing 10% fetal bovine serum (FBS). Human head and neck tumor cells (HN5) were cultured in low glucose DMEM (Invitrogen, 12320) containing 10% FBS. Human colon tumor cells (Colo205) were cultured in DMEM (Invitrogen, 10564) containing 10% FBS. Human melanoma cancer cells (SK-MEL-28) were incubated in DMEM (Invitrogen). All cell lines were maintained at 37° C. in a humidified 5% CO2, 95% air incubator. Cells were harvested using trypsin/EDTA, counted using a haemocytometer, and plated in 30 μL of the appropriate media described above, at the following densities, in a half-area, black-walled, 96-well tissue culture plate (Corning 3882): BT474 3,000 cells/well, HN5 500 cells/well, Colo205 3,000 cells/well, and SK-MEL-28 500 cells/well). The next day, compounds were diluted in DMEM containing […] gentamicin, from 10 mM stock solutions in DMSO. 30 μL/well of these dilutions were added to the 30 μL/well of media currently on the cell plates. Medium containing 0.6% DMSO was added to control wells. The final concentration of DMSO in all wells was 0.3%. Cells were incubated at 37° C., 5% CO2 for 3 days. Cell biomass was estimated using CellTiter-Glo® reagent (Promega G7571). Briefly, plates were removed from the incubator and allowed to equilibrate to rt for 30 minutes. 25-60 μL of CellTiter-Glo® reagent were added to each well of the treated cells and plates were shaken on an orbital plate shaker for 2 mins. Plates were incubated without shaking for 30 more mins and read in a luminometer with an integration time of 0.5 seconds per well. Percent inhibition of cell growth was calculated relative to vehicle-treated control wells. Concentration of compound that inhibits 50% of vehicle control cell growth (IC50) was interpolated using nonlinear regression (Levenberg-Marquardt) and the equation, y=V max*(1−(x/(K+x)))+Y2, where “K” was equal to the IC50.

BT474 tumor cells [3] = test: Method B: CellTiter-Glo Growth Inhibition Assay, BT474; type: cell-based; settings: Homo sapiens, BT-474, 72 h, 3 days
Method: as §2

HN5 tumor cells [4] = test: Method B: CellTiter-Glo Growth Inhibition Assay, HN5; type: cell-based; settings: Homo sapiens, 72 h, 3 days
Method: as §2

Colo205 tumor cells [5] = test: Method A: Methylene Blue Growth Inhibition Assay, Colo205; type: cell-based; settings: Homo sapiens, COLO 205, 72 h, 3 days
Method: (§3) Human breast (BT474) and head and neck (HN5) tumor cells were cultured in low glucose DMEM (Life Technologies 12320-032) containing 10% fetal bovine serum (FBS). Human colon tumor cells (Colo205) were cultured in DMEM (Invitrogen, 10564) containing 10% FBS. The SV40 transformed human mammary epithelial cell line HB4a was transfected with either human H-ras cDNA (HB4a r4.2) or the human c-ErbB2 cDNA (HB4a c5.2). The HB4a clones were cultured in RPMI containing 10% FBS, insulin (5 g/mL), hydrocortisone (5 g/mL), supplemented with the selection agent hygromycin B (50 g/mL). All lines were grown in a humidified incubator at 37° C. in 95% air, 5% CO2. Cells were harvested using trypsin/EDTA, counted using a haemocytometer, and plated in 100 μL of the appropriate media, at the following densities, in a 96-well tissue culture plate (Falcon 3075): BT474 10,000 cells/well, HN5 3,000 cells/well. The next day, compounds were diluted in DMEM containing […] gentamicin, at twice the final required concentration, from 10 mM stock solutions in DMSO. 100 μl/well of these dilutions were added to the 100 μL of media currently on the cell plates. Medium containing 0.6% DMSO was added to control wells. Compounds diluted in DMEM were added to all cell lines. The final concentration of DMSO in all wells was 0.3%. Cells were returned to the incubator (37° C., […]) for 3 days. Medium was then removed by aspiration. Cell biomass was estimated by staining cells with 90 μL/well methylene blue (Sigma M9140, 0.5% in 1:1 EtOH:H2O), and incubation at room temperature for at least 30 minutes. Stain was removed, and the plates rinsed by immersion in deionized H2O and air-dried. To release stain from the cells 100 μL of solubilization solution were added (1% N-lauroyl sarcosine, sodium salt, Sigma L5125, in PBS), and plates were shaken gently for about 30 minutes. Optical density at 620 nm was measured on a microplate reader. Percent inhibition of cell growth was calculated relative to vehicle-treated control wells. Concentration of compound that inhibits 50% of control cell growth (IC50) was interpolated using nonlinear regression (Levenberg-Marquardt) and the equation,
(§4) y=Vmax*(1−(x/(K+x)))+Y2, where “K” was equal to the IC50.

BT474 tumor cells [6] = test: Method A: Methylene Blue Growth Inhibition Assay, BT474; type: cell-based; settings: Homo sapiens, BT-474, 72 h, 3 days
Method: as §3, §4

HN5 tumor cells [7] = test: Method A: Methylene Blue Growth Inhibition Assay, HN5; type: cell-based; settings: Homo sapiens, 72 h, 3 days
Method: as §3, §4

IC50 (Colo205 tumor cells [1]) | IC50 (ErbB2) | IC50 (EGFR) | IC50 (SK-MEL-28 tumor cells) | IC50 (B-Raf) | IC50 (Colo205 tumor cells [2]) | IC50 (BT474 tumor cells [3]) | IC50 (HN5 tumor cells [4]) | IC50 (Colo205 tumor cells [5]) | IC50 (BT474 tumor cells [6]) | IC50 (HN5 tumor cells [7]) | Compound
> 1 µM | < 0.1 µM | < 0.1 µM | > 1 µM | 0.1 to 1 µM | – | – | – | – | – | – | Cc1cc(Nc2nccc(-c3sc(N(C)C)nc3-c3cccc(NC(=O)c4c(F)cccc4F)c3)n2)ccc1CC1CCNCC1 [Example 42, N-{3-[2-(Dimethylamino)-5-(2-{[3-methyl-4-(4-piperidinylmethyl)phenyl]amino}-4-pyrimidinyl)-1,3-thiazol-4-yl]phenyl}-2,6-difluorobenzamide]
– | 0.1 to 1 µM | < 0.1 µM | – | > 1 µM | > 1 µM | 0.1 to 1 µM | 0.1 to 1 µM | – | – | – | Cc1cc(-c2sc(N)nc2-c2cccc(NC(=O)c3c(F)cccc3F)c2)nc(Nc2cccc(OCCN(C)C)c2)n1 [Example 49, N-[3-(2-Amino-5-{2-[(3-{[2-(dimethylamino)ethyl]oxy}phenyl)amino]-6-methyl-4-pyrimidinyl}-1,3-thiazol-4-yl)phenyl]-2,6-difluorobenzamide]
– | < 0.1 µM | < 0.1 µM | – | > 1 µM | – | – | – | 0.1 to 1 µM | < 0.1 µM | < 0.1 µM | COCCOc1ccc(Nc2nccc(-c3sc(N)nc3-c3cccc(NC(=O)c4cccn4C)c3)n2)cc1F [Example 66, N-[3-(2-Amino-5-{2-[(3-fluoro-4-{[2-(methyloxy)ethyl]oxy}phenyl)amino]-4-pyrimidinyl}-1,3-thiazol-4-yl)phenyl]-1-methyl-1H-pyrrole-2-carboxamide]
– | < 0.1 µM | < 0.1 µM | – | > 1 µM | – | – | – | > 1 µM | 0.1 to 1 µM | 0.1 to 1 µM | Nc1nc(-c2cccc(OCc3ccccc3)c2)c(-c2ccnc(Nc3cccc(-c4cnco4)c3)n2)s1 [Example 69, 4-(2-Amino-4-{3-[(phenylmethyl)oxy]phenyl}-1,3-thiazol-5-yl)-N-[3-(1,3-oxazol-5-yl)phenyl]-2-pyrimidinamine]
